Earlier results as cited in patent US7985768B2, “Compounds as cannabinoid receptor ligands” (priority 2006, dated 2011).

Columns and labels:
[1] = test system: CB1 receptor knockout mice
[2] = test system: CB2 receptor knockout mice
[3] = test system: apolipoprotein E knockout mice
rat = rat formalin model of persistent pain
microglial activation = settings: in vitro
mice = settings: model for post-menopausal osteoporosis
[4] = at fully efficacious doses
animal models of pain = settings: models of acute thermal, persistent, inflammatory and neuropathic pain
rodent models of pain = settings: neuropathic, incisional, chronic and acute inflammatory pain

(−)-Δ^9-Tetrahydrocannabinol [Δ^9-THC]
analgesic efficacy [1]: retains some analgesic efficacy
immunosuppressive effects [2]: absent
effect on progression of atherosclerotic lesions ([3]; low doses): slowed the progression of atherosclerotic lesions

CCCCCCC(C)(C)c1cc(OC)c([C@@H]2C=C(CO)[C@@H]3C[C@H]2C3(C)C)c(OC)c1 [HU-308]
antinociceptive response (rat): elicits an antinociceptive response

CCCC(C)(C)c1ccc2c(c1)OC(C)(C)[C@@H]1CC=C(C)C[C@@H]21 [JWH-133]
effect on β-amyloid-induced microglial activation and neurotoxicity (microglial activation): abrogated

SR144528
effect on the actions of JWH-133 (microglial activation; antagonist against JWH-133): blocked
effect on ovariectomy-induced bone loss (mice): reverse ovariectomy-induced bone loss
effect on osteoclast activity (osteoclast): inhibit osteoclast activity
effect on the actions of THC on atherosclerotic lesions ([3]; antagonist against THC): inhibited

CN1CCCCC1Cn1cc(C(=O)c2cc([N+](=O)[O-])ccc2I)c2ccccc21 (stereo not shown) [AM-1241]
CB1 receptor-mediated CNS side effects [4]: devoid of typical CB1 receptor-mediated CNS side effects
analgesic efficacy (animal models of pain): robust analgesic efficacy

COc1ccc2c(c1)c(CCN1CCOCC1)c(C)n2C(=O)c1cccc(Cl)c1Cl [GW405833]
CB1 receptor-mediated CNS side effects [4]: devoid of typical CB1 receptor-mediated CNS side effects
efficacy in pain models (rodent models of pain): efficacious
